According to patent US4284635A, “Analgesic 1,2,4,5-tetra-alkyl-4-arylpiperidines” (Eli Lilly and Company, priority 1978, dated 1981):

Assay: rat-tail jerk assay (rats subjected to a heat sensation)
Format: in vivo
Conditions: subcutaneous
Source text: The analgesic activity of a number of compounds provided by this invention has been determined in the standard rat-tail jerk assay and the mouse writhing assay. The results in the mouse writhing assay are presented as the effective dose in mg./kg. of the tested compound required to inhibit induced writhing in the test animals by fifty percent (ED50). Results are presented in Column II for both subcutaneous (S.C.) and oral (p.o.) administration of the test compound recited in Column I.
Column III presents the effects of the claimed compounds on rats subjected to a heat sensation. The compounds recited in column I were administered subcutaneously to the test animals. The test results are reported as the minimum effective dose (MED) of compound in mg./kg. needed to delay response to the pain stimulus by one second compared to control animals.

SMILES | Rat Tail Jerk MED 1 sec. (minimum effective dose needed to delay response to the pain stimulus by one second compared to control animals)
CC1CC(C)(c2cccc(O)c2)C(C)CN1C (centres unmarked) [1,2,4,5-Tetramethyl-4-(3-hydroxyphenyl)piperidine] | 1 mg/kg
COc1cccc(C2(C)CC(C)N(C)CC2C)c1 (centres unmarked) [1,2,4,5-Tetramethyl-4-(3-methoxyphenyl)piperidine] | 10 mg/kg
CCCC1(c2cccc(OC)c2)CC(C)N(C)CC1C (centres unmarked) [1,2,5-Trimethyl-4-n-propyl-4-(3-methoxyphenyl)piperidine] | 2 mg/kg
CCCC1(c2cccc(O)c2)CC(C)N(C)CC1C (centres unmarked) [1,2,5-trimethyl-4-n-propyl-4-(3-hydroxyphenyl)piperidine] | 20 mg/kg
CCOC(=O)C1(c2ccccc2)CCN(C)CC1 [Meperidine, reference compound] | 3.0 mg/kg
